Literature values, collected in patent publication US12009562B2, “High solubility iron hexacyanides” (Lockheed Martin Energy, LLC, priority 2012, dated 2024).

## O.O.O.O.O.O.O.O.O.O.[C-]#N.[C-]#N.[C-]#N.[C-]#N.[C-]#N.[C-]#N.[Fe+2].[Na+].[Na+].[Na+].[Na+] [Na4Fe(CN)6.10H2O]
  concentration reported upon saturating 2 M NaOH: ~0.6 M
